According to patent EP3324923B1, “COMPOSITIONS AND METHODS USING PALYTHINE” (King's College London, priority 2015, dated 2017):

Tests used:
HaCaT cells = test: Reactive oxygen species detection by FACS analysis (carboxy-H2DCFDA), Example 8; format: cell-based, human; details: for Median corrected Average: FACS Analysis - Reactive Oxygen Species
Protocol: Intracellular ROS generation was measured using the detection agent 5-(and-6)-carboxy-2',7'- dichlorodihydrofluorescein diacetate (carboxy-H2DCFDA). […] More specifically, total intracellular ROS generation was studied using 5-(and-6)-carboxy-2',7'-dichlorodihydrofluorescein diacetate (carboxy-H2DCFDA).
Powdered sunscreens were dissolved in PBS (Sigma-Aldrich, UK) at a concentration in which they can dissolve fully (0-0.3%). They were then applied (200ul/well) to wells of a 24 well plate containing a washed monolayer of cells. Cells were then irradiated and the sunscreen removed and washed post treatment.
Irradiation was carried out on cells in monolayers at a distance of 3 cm (Solar Simulator) in cold PBS or PBS + sunscreen. The plate was always placed on a cooling platform at 4°C to avoid overheating of the cells. Unirradiated samples were maintained in PBS for the same time and temperature as irradiated samples.
Detection of reactive oxygen species was performed by FACS analysis using 5-(and 6-)-carboxy-2,',7'-dichlorodihydrofluorescein diacetate (Carboy-H2-DCFDA) (Invitrogen, Paisley, UK). Carboy-H2-DCFDA is a non-fluorescent dye that is activated into a fluorescent dye by ROS cleaving acetate groups from the molecule.
Cells were grown in a 12 well plate washed twice in PBS and irradiated +/- sunscreens. Control cells were unirradiated and positive controls were treated with 0.03% hydrogen peroxide for 5 minutes. Cells were washed again twice in PBS and then 1ML of Carboy-H2-DCFDA diluted in PBS to a concentration of 5uM was added to each well and were incubated for 2 minutes in a cell culture incubator in the dark (95% air, 5% CO2, 37°C, humidified). Each well was then washed twice with PBS to remove any excess dye.
Cells were then trypsinised, centrifuged at 400g for 4 minutes at 4°C and resuspended in 0.5ml of PBS + 0.1%w/v BSA and transferred to FACS tubes. Samples were then analysed with a Becton Dickson CANTO 3. The viable proportion of the cell population was quantified by the addition of 2.5ug/ml of propidium iodide immediately before the analysis.

HaCaT keratinocytes = test: CPD DNA lesion formation by IHC-IF; format: cell-based, human; details: 20J/cm^2 SSR; palythine 0.3-10%w/v; immediately post exposure; n=3; p<0.0001
Protocol: HaCat keratinocytes were irradiated with 20J/cm^2 of solar simulated UVR radiation with 0% (PBS alone), 0.3%, 4% or 10% of palythine. The relative formation of the CPD DNA lesion was measured by IHC-IF and the relative fluorescent intensity plotted. The data in figure 11 show protection by palythine against solar simulated UVR induced CPD formation by IHC-IF.
The radiation procedure was carried out as described above. Cells were washed, then fixed in 2 % (v/v) paraformaldehyde with 0.5 % (v/v) Triton X-100 in PBS for 30 mins at 4 °C. DNA was then denatured by incubation in 2 M HCl for 10 mins at 37 °C. Nonspecific sites were blocked using blocking buffer of 20 % (v/v) goat serum and 0.1 % (v/v) triton x-100 in PBS for 30 mins at room temperature. The primary antibody used was Anti-CPD (Clone TDM-2) (Cosmobio, Tokyo, Japan) at 1:1000 in blocking buffer for 1 hr at room temperature. Alexafluor 488 was diluted in blocking buffer (1:200 dilution) and incubated for 1 hr at room temperature and finally DAPI was added for 10 mins. Washing was carried out (3x5 mins) between each step.
All assays were performed on HaCat cells grown as a 70-80 % confluent monolayer in multiwell plates. They were washed three times in PBS and covered with palythine dissolved in PBS at differing concentrations (0, 0.1, 0.3 %, 4 % and 10 % w/v). […]

Structure (SMILES): COC1=C(NCC(=O)O)CC(O)(CO)CC1=N (stereo not shown) [palythine]
- Median corrected Average (HaCaT cells; 0.1% palythine): 36.35
- Median corrected Average (HaCaT cells; 0.3% palythine): 33.9
- total intracellular ROS generated after exposure to UVA and UVB (HaCaT cells; carboxy-H2DCFDA): significantly reduce
- CPD production compared to irradiated control (HaCaT keratinocytes): significant reduction
